PMC8968713, “Displacement of Native FXYD Protein From Na^+/K^+-ATPase With Novel FXYD Peptide Derivatives: Effects on Doxorubicin Cytotoxicity” (Frontiers in Oncology, 2022)
Where two headings read alike, the source gives them in different places.

Columns and labels:
BxPC-3 cells = test: XTT cell viability, BxPC-3 cells; format: cell-based; details: Homo sapiens, BXPC-3, 48 h, 5 experiments
Procedure: (§1) Human pancreatic cancer cells BxPC-3, Panc-1, non-transformed human mammary epithelial MCF-10A cells, and human breast cancer cells MCF-7 and MDA-MB-468 were obtained from the American Type Culture Collection (ATCC, Manassas, VA, USA). The cells were then cultured as previously described ([6], [9], [11]). All cells were used within 20 passages of thawing and were free of mycoplasma contamination as ascertained by mycoplasma PCR detection ([12]).
(§2) Cell metabolic activity was assayed as described ([14]) by estimating the reduction of XTT (2,3-bis(2-methoxy-4-nitro-5-sulfophenyl)-2H-tetrazolium-5-carboxyanilide), using a commercially available kit (Cell Signaling Technology, Danvers, MA, USA) according to the manufacturer’s instructions. Metabolic activity was used as a surrogate for viability. For each set of experimental groups, we performed 5 experiments with 4 replicates. Caspase-3-like activity is increased through a protease cascade during the early stage of apoptosis ([15]), and we measured activities of Caspase 3/7 (DEVDase) using the caspase fluorogenic substrate (Calbiochem, San Diego, CA, USA) as described ([9]).
(§3) Results are presented as mean ± standard deviation (SD). The IC50 values for Dox in cell viability studies were calculated by GraphPad Prism. Statistical comparisons were made with a Mann–Whitney test, ANOVA, and repeated-measure ANOVA with Geisser–Greenhouse epsilon correction. p < 0.05 was considered statistically significant.
(§4) We examined if displacement of WT FXYD3 from Na^+/K^+-ATPase is reflected in viability of cells exposed to FXYD3-pep SKSK with and without co-exposure to Dox for 48 h. The culture medium that contained FXYD3-pep SKSK and Dox was replaced with fresh medium every 24 h.

MCF-7 cells = test: XTT cell viability, MCF-7 cells; format: cell-based, human; details: for IC50: Homo sapiens, MCF7, 48 h, 48 h, XTT, 5 experiments
Procedure: as §1, §2, §3, §4

IC50 (BxPC-3 cells; Dox alone (no peptide)) [nM] | IC50 (BxPC-3 cells; co-exposure to 1 μM FXYD3-pep SKSK, read-out: IC50 for Dox, cell viability) [nM] | IC50 (BxPC-3 cells; co-exposure to 2 μM FXYD3-pep SKSK, read-out: IC50 for Dox, cell viability) [nM] | IC50 (MCF-7 cells; Dox alone (no peptide)) [nM] | IC50 (MCF-7 cells; co-exposure to 2 µM FXYD3-pep SKSK, read-out: IC50 for Dox, cell viability) [nM] | Compound | Effect of ouabain on Dox-induced cytotoxicity (MCF-7 cells; 48-h co-exposure with 1 μM Dox, N = 5) | Effect of ouabain alone on cell viability (MCF-7 cells; 48-h exposure, ouabain 25-150 nM, N = 5)
~1740 | ~400 | ~300 | ~4300 | ~500 | COc1cccc2c1C(=O)c1c(O)c3c(c(O)c1C2=O)C[C@@](O)(C(=O)CO)C[C@@H]3O[C@H]1C[C@H](N)[C@H](O)[C@H](C)O1 [Dox, doxorubicin] | – | –
– | – | – | – | – | C[C@@H]1O[C@@H](O[C@H]2C[C@@H](O)[C@]3(CO)[C@H]4[C@H](O)C[C@]5(C)[C@@H](C6=CC(=O)OC6)CC[C@]5(O)[C@@H]4CC[C@]3(O)C2)[C@H](O)[C@H](O)[C@H]1O [ouabain] | modest augmentation of Dox-induced cytotoxicity decreased with an increase in ouabain concentration | reduced cell viability in a concentration-dependent manner
